Ki data for 24 molecules are collected here from US9914732B2, “Diazabicyclo[4.3.1]decane derivatives for treatment of psychiatric disorders” (Max-Planck-Gesellschaft zur Forderung der Wissenschaften …, priority 2014, dated 2018).

One assay deals with T1, FKBP52 (Homo sapiens, UniProt Q02790).
T1 sequence (Q02790 50-138 limits assumed): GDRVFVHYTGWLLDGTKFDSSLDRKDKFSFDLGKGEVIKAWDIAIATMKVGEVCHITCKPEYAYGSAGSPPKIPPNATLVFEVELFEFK
The experiment in a line: Fluorescence polarization (FP) assay, binding to the FK506-binding domain of FKBP52. Conditions: FK506-binding domain of FKBP52 (FKBP52FK1), competition with fluorescent ligand 2b. The procedure, abridged: (§1)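 Competitive FP with fluorescent ligand 2b at 20 nM (2× concentration) and FK1 domain at 280 nM (FKBP51) or 400 nM (FKBP52) in 20 mM HEPES pH 8, 0.01% Triton-X100. Anisotropy read after 30 min at room temperature (ex 485, em 535 nm), in duplicate; IC50 by four-parameter fit, Ki via Wang competitive equation.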
In general terms: In fluorescence polarisation assays a small probe gives low polarisation when free and higher when bound to something large.

For a further assay, the target named is T2, FKBP51 (Homo sapiens, UniProt Q13451).
T2 sequence (Q13451 42-130 limits assumed): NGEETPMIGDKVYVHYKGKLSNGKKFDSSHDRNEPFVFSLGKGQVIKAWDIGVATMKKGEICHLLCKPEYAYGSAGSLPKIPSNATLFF
As to the kind of experiment: Fluorescence polarization (FP) assay, binding to the FK506-binding domain of FKBP51. Particulars: FK506-binding domain of FKBP51 (FKBP51FK1), competition with fluorescent ligand 2b. The gist of the method: as §1

The Ki is the equilibrium dissociation constant of an inhibitor or competing ligand from its target. A low value points to higher affinity. As to `C#CCN1C[C@H](COC)[C@H]2CCC[C@@H](C1=O)N2S(=O)(=O)c1ccc(NC(C)=O)c(Cl)c1` [Compound N8, N-(2-chloro-4-(((1S,5S,6R)-5-(methoxymethyl)-2-oxo-3-(prop-2-yn-1-yl)-3,10-diazabicyclo[4.3.1]decan-10-yl)sulfonyl)phenyl)acetamide], the Ki on FKBP52 and on FKBP51 was 100 to 500 nM each time.

With `C#CCN1C[C@H](COC)[C@H]2CCC[C@@H](C1=O)N2S(=O)(=O)c1ccc(-c2ccccc2)nc1` [Compound N14, (1S,5S,6R)-5-(methoxymethyl)-10-((6-phenylpyridin-3-yl)sulfonyl)-3-(prop-2-yn-1-yl)-3,10-diazabicyclo[4.3.1]decan-2-one], the Ki on FKBP52 and at FKBP51 was 100 to 500 nM in each case.

Take `COc1ccc(OCCN2C[C@H]([C@H](O)CO)C3CCCC(C2=O)N3S(=O)(=O)c2cc(Cl)cc(Cl)c2)cc1OC` (stereo partly drawn) [C2(C2a/b), (1S,5S,6R)-10-((3,5-dichlorophenyl)sulfonyl)-5-(1,2-dihydroxyethyl)-3-(2-(3,4-dimethoxyphenoxy)ethyl)-3, 10-diazabicyclo[4.3.1]decan-2-one]: the Ki on FKBP52 and at FKBP51 was no more than 100 nM in each case.

`CO[C@H]1CN(C)C(=O)[C@@H]2CCC[C@H]1N2S(=O)(=O)c1cc(Cl)cc(Cl)c1` [Compound H1.3, (1S,5S,6R)-10-((3,5-dichlorophenyl)sulfonyl)-5-methoxy-3-methyl-3,10-diazabicyclo[4.3.1]decan-2-one]: the Ki at FKBP52 and at FKBP51 was 500 to 1000 nM each time.

`COC[C@H]1CN(Cc2cnn[nH]2)C(=O)[C@@H]2CCC[C@H]1N2S(=O)(=O)c1cc(Cl)c(NC(C)=O)c(Cl)c1` [Compound N24, N-(4-(((1S,5S,6R)-3-((1H-1,2,3-triazol-5-yl)methyl)-5-(methoxymethyl)-2-oxo-3,10-diazabicyclo[4.3.1]decan-10-yl)sulfonyl)-2,6-dichlorophenyl)acetamide]: the Ki on FKBP52 and at FKBP51 was no more than 100 nM in each case.

With `C=CC1CNC(=O)C2CCCC1N2S(=O)(=O)c1cc(Cl)cc(Cl)c1` (stereo in doubt) [Compound I8, (1S,5R,6R)-10-((3,5-dichlorophenyl)sulfonyl)-5-vinyl-3,10-diazabicyclo[4.3.1]decan-2-one], the Ki on FKBP52 and at FKBP51 was 500 to 1000 nM in each case.

`COc1ccc(OCCN2C[C@H](C(C)(C)O)[C@H]3CCC[C@@H](C2=O)N3S(=O)(=O)c2cc(Cl)cc(Cl)c2)cc1OC` [Compound D3, (1S,5S,6R)-10-((3,5-dichlorophenyl)sulfonyl)-3-(2-(3,4-dimethoxyphenoxy)ethyl)-5-(2-hydroxypropan-2-yl)-3,10-diazabicyclo[4.3.1]decan-2-one]: the Ki on FKBP52 and at FKBP51 was no more than 100 nM in each case.

On to `C=CC1CN(Cc2ccccn2)C(=O)C2CCCC1N2S(=O)(=O)c1nc2ccccc2[nH]1` (stereo in doubt) [Compound K29, (1S,5R,6R)-10-((1H-benzo[d]imidazol-2-yl)sulfonyl)-3-(pyridin-2-ylmethyl)-5-vinyl-3,10-diazabicyclo[4.3.1]decan-2-one], for which the Ki at FKBP52 and on FKBP51 was no more than 100 nM throughout.

Consider `C=CC1CN(Cc2ccccn2)C(=O)C2CCCC1N2S(=O)(=O)c1ccc(OC)c(Cl)c1` (stereo in doubt) [Compound K10, (1S,5R,6R)-10-((3-chloro-4-methoxyphenyl)sulfonyl)-3-(pyridin-2-ylmethyl)-5-vinyl-3,10-diazabicyclo[4.3.1]decan-2-one], for which the Ki at FKBP52 and on FKBP51 was 100 to 500 nM each time.

In the case of `C=CC1CN(Cc2ccccn2)C(=O)C2CCCC1N2S(=O)(=O)c1ccc2ncsc2c1` (stereo in doubt) [Compound K9, (1S,5R,6R)-10-(benzo[d]thiazol-6-ylsulfonyl)-3-(pyridin-2-ylmethyl)-5-vinyl-3,10-diazabicyclo[4.3.1]decan-2-one], the Ki on FKBP52 and at FKBP51 was 100 to 500 nM throughout.

On to `COCCN1C[C@H](CCO)[C@H]2CCC[C@@H](C1=O)N2S(=O)(=O)c1cc(Cl)cc(Cl)c1` [Compound B8, (1S,5S,6R)-10-((3,5-dichlorophenyl)sulfonyl)-5-(2-hydroxyethyl)-3-(2-methoxyethyl)-3,10-diazabicyclo[4.3.1]decan-2-one], for which the Ki at FKBP52 and at FKBP51 was 100 to 500 nM throughout.

Turning to `CCC1CN(Cc2ccccn2)C(=O)C2CCCC1N2S(=O)(=O)c1cc(Cl)cc(Cl)c1` (stereo in doubt) [Compound M1, (1S,5R,6R)-10-((3,5-dichlorophenyl)sulfonyl)-5-ethyl-3-(pyridin-2-ylmethyl)-3,10-diazabicyclo[4.3.1]decan-2-one], the Ki on FKBP52 and at FKBP51 was no more than 100 nM throughout.

As for `CCOCCN1C[C@H](C(O)CO)[C@H]2CCC[C@@H](C1=O)N2S(=O)(=O)c1cc(Cl)cc(Cl)c1` (stereo partly drawn) [Compound C3, (1S,5S,6R)-10-((3,5-dichlorophenyl)sulfonyl)-5-(1,2-dihydroxyethyl)-3-(2-ethoxyethyl)-3,10-diazabicyclo[4.3.1]decan-2-one], the Ki on FKBP52 and at FKBP51 was 100 to 500 nM in each case.

Consider `CNC[C@H]1CN(CCOC)C(=O)[C@@H]2CCC[C@H]1N2S(=O)(=O)c1cc(Cl)cc(Cl)c1` [Compound B12, (1S,5S,6R)-10-((3,5-dichlorophenyl)sulfonyl)-3-(2-methoxyethyl)-5-((methylamino)methyl)-3,10-diazabicyclo[4.3.1]decan-2-one], for which the Ki at FKBP52 and at FKBP51 was 100 to 500 nM in each case.

As to `COCCN1C[C@H](C(N)=O)[C@H]2CCC[C@@H](C1=O)N2S(=O)(=O)c1cc(Cl)cc(Cl)c1` [Compound B11, (1S,5S,6R)-10-((3,5-dichlorophenyl)sulfonyl)-3-(2-methoxyethyl)-2-oxo-3,10-diazabicyclo[4.3.1]decane-5-carboxamide], the Ki on FKBP52 and on FKBP51 was 100 to 500 nM in each case.

Regarding `O=C1[C@@H]2CCC[C@H]([C@@H](C(F)F)CN1Cc1ccccn1)N2S(=O)(=O)c1cc(Cl)cc(Cl)c1` [Compound M3, (1S,5S,6R)-10-((3,5-dichlorophenyl)sulfonyl)-5-(difluoromethyl)-3-(pyridin-2-ylmethyl)-3,10-diazabicyclo[4.3.1]decan-2-one], the Ki at FKBP52 and at FKBP51 was no more than 100 nM throughout.

Regarding `O=C1[C@@H]2CCC[C@H]([C@H](CO)CN1CCCO)N2S(=O)(=O)c1cc(Cl)cc(Cl)c1` [Compound J5, (1S,5R,6R)-10-((3,5-dichlorophenyl)sulfonyl)-5-(hydroxymethyl)-3-(3-hydroxypropyl)-3,10-diazabicyclo[4.3.1]decan-2-one], the Ki at FKBP52 and on FKBP51 was 500 to 1000 nM in each case.

Regarding `COC[C@H]1CN(Cc2cnn[nH]2)C(=O)[C@@H]2CCC[C@H]1N2S(=O)(=O)c1cccc(C(N)=O)c1` [Compound N19, 3-(((1S,5S,6R)-3-((1H-1,2,3-triazol-5-yl)methyl)-5-(methoxymethyl)-2-oxo-3,10-diazabicyclo[4.3.1]decan-10-yl)sulfonyl)benzamide], the Ki on FKBP52 and on FKBP51 was no more than 100 nM each time.

Take `COCC1CN(Cc2cnnn2-c2ccccc2)C(=O)C2CCCC1N2S(=O)(=O)c1cccc(F)c1` (stereo in doubt) [Compound N29, (1S,5R,6R)-10-((3-fluorophenyl)sulfonyl)-5-(methoxymethyl)-3-((1-phenyl-1H-1,2,3-triazol-5-yl)methyl)-3,10-diazabicyclo[4.3.1]decan-2-one]: the Ki on FKBP52 and at FKBP51 was 100 to 500 nM in each case.

Take `COC[C@H]1CN(Cc2cnnn2C(=O)c2ccccc2)C(=O)[C@@H]2CCC[C@H]1N2S(=O)(=O)c1cccc(F)c1` [Compound N31, (1S,5S,6R)-3-((1-benzoyl-1H-1,2,3-triazol-5-yl)methyl)-10-((3-fluorophenyl)sulfonyl)-5-(methoxymethyl)-3,10-diazabicyclo[4.3.1]decan-2-one]: the Ki at FKBP52 and on FKBP51 was 100 to 500 nM throughout.

Take `C=CC1CN(CC#N)C(=O)C2CCCC1N2S(=O)(=O)c1cc(Cl)cc(Cl)c1` (stereo in doubt) [Compound J16, 2-((1S,5R,6R)-10-((3,5-dichlorophenyl)sulfonyl)-2-oxo-5-vinyl-3,10-diazabicyclo[4.3.1]decan-3-yl)acetonitrile]: the Ki on FKBP52 and at FKBP51 was 100 to 500 nM each time.

Turning to `COCCN1CC(CO)C2CCCC(C1=O)N2S(=O)(=O)c1cc(Cl)cc(Cl)c1` (stereo in doubt) [Compound B13, (1S,5R,6R)-10-((3,5-dichlorophenyl)sulfonyl)-5-(hydroxymethyl)-3-(2-methoxyethyl)-3,10-diazabicyclo[4.3.1]decan-2-one], the Ki is 100 to 500 nM at FKBP52 and no more than 100 nM at FKBP51.

As to `COC[C@H]1CN(Cc2cnn[nH]2)C(=O)[C@@H]2CCC[C@H]1N2S(=O)(=O)c1ccc(NC(C)=O)c(Cl)c1` [Compound N23, N-(4-(((1S,5S,6R)-3-((1H-1,2,3-triazol-5-yl)methyl)-5-(methoxymethyl)-2-oxo-3,10-diazabicyclo[4.3.1]decan-10-yl)sulfonyl)-2-chlorophenyl)acetamide], the Ki at FKBP52 and on FKBP51 was no more than 100 nM in each case.

Take `C#CCN1C[C@H](COC)[C@H]2CCC[C@@H](C1=O)N2S(=O)(=O)c1cc(Br)cc(C(N)=O)c1` [Compound N5, 3-bromo-5-(((1S,5S,6R)-5-(methoxymethyl)-2-oxo-3-(prop-2-yn-1-yl)-3,10-diazabicyclo[4.3.1]decan-10-yl)sulfonyl)benzamide]: the Ki on FKBP52 and at FKBP51 was 100 to 500 nM in each case.
